What was measured:
human TRPV1 = target: T1, human TRPV1 (Homo sapiens, UniProt Q8NER1); test: Block of capsaicin-induced Ca2+ influx, human assay (hTRPV1/HEK293, FLIPR); type: cell-based; conditions: HEK293 cells transfected with human TRPV1; 150 nM capsaicin challenge; mean; > value = solubility limit in assay medium
T1 construct: expressed in transfected cells; host or cells: HEK293
Protocol: (§1) HEK293 cells were transfected with human TRPV1 cloned in pcDNA3.1zeo(+) using the Effectene non-liposomal lipid based transfection kit (Qiagen) (hTRPV1/HEK293). hTRPV1/HEK293 cells were routinely grown as monolayers under selection in zeocin (200 μg/mL; Invitrogen) in Dulbecco's Modified Eagle Medium (DMEM, Gibco BRL) supplemented with 10% fetal bovine serum, and penicillin/streptomycin (50 units/mL) in 5% CO2 at 37° C. Cells were passaged frequently, every 3-5 days, to avoid overgrowth, depletion of essential medium components, or acidic medium exposure. Cells were passaged using a brief wash in 0.05% trypsin with 1 mM EDTA, followed by dissociation in divalent-free phosphate-buffered saline (Hyclone #SH30028.02). […] The assay buffer was composed of 130 mM NaCl, 2 mM KCl, 2 mM MgCl2, 10 mM HEPES, 5 mM glucose, and either 2 mM or 20 μM CaCl2. On the day of the experiment, the culture medium was replaced with 2 mM calcium assay buffer using an automated plate washer (ELx405; Biotek, VT). […] After loading the cells, the dye solution was replaced with 50 μL/well of 20 μM calcium assay buffer using the ELx405 plate washer. Test compounds (50 μL/well) were added to the plate and incubated for 30 min. Intracellular Ca^2+ levels were subsequently assayed using a Fluorometric Imaging Plate Reader (FLIPR™ instrument, Molecular Devices, CA) to simultaneously monitor Fluo-3 fluorescence in all wells (λexcitation=488 nm, λemission=540 nm) during challenge with agonist (capsaicin). The IC50 values were determined. […] The contents of the wells were mixed 3 times (40 μL mix volume) immediately after the additions were made. Concentration-dependence of block was determined by exposing each well of cells in duplicate rows of a 96-well plate to a serial dilution of test compound. The concentration series usually started at 10 μM with a three-fold serial decrement in concentration. The magnitude of the capsaicin response was determined by measuring the change in fluo3 fluorescence before and 100 seconds after the addition of the agonist. Data were analyzed using a non-linear regression program (Origin; OriginLab, MA).
(§2) IC50 values shown are the average (mean) of the results obtained. […] Compounds were tested as in the free base, trifluoroacetic acid salt, or hydrochloride salt form.

rat TRPV1 = target: T2, rat TRPV1 (Rattus norvegicus, UniProt O35433); test: Block of capsaicin-induced Ca2+ influx, rat assay (rTRPV1/HEK293, FLIPR); type: cell-based; conditions: HEK293 cells transfected with rat TRPV1; capsaicin challenge; mean; > value = solubility limit in assay medium; read-out: Rat IC50
T2 construct: expressed in transfected cells; host or cells: HEK293
Protocol: as §1
This assay was performed similarly to the human assay described above, but using HEK293 cells transfected with rat TRPV1 (rTRPV1/HEK293).
as §2

T2 sequence (O35433 whole entry): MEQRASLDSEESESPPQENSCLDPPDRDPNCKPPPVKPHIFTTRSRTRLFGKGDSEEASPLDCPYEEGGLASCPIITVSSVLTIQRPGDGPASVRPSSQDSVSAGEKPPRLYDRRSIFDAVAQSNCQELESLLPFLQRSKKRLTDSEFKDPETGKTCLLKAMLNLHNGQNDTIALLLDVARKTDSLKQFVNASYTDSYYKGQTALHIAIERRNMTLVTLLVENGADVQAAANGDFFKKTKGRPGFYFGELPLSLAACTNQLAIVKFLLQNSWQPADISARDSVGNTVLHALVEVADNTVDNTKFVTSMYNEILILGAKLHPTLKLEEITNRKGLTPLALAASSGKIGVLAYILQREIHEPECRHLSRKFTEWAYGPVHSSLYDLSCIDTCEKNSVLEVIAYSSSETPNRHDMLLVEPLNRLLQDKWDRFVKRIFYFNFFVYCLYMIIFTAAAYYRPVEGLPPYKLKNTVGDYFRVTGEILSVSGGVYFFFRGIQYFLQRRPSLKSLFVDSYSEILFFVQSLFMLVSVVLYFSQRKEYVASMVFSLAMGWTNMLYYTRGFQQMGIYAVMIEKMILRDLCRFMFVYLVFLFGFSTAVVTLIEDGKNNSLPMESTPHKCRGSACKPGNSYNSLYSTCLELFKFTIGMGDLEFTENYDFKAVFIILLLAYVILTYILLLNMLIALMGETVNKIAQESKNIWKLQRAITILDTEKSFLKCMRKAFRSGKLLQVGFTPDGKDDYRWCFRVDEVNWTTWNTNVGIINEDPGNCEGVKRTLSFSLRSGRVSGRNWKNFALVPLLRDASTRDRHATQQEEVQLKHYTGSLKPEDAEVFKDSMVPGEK
T1 sequence (Q8NER1 whole entry): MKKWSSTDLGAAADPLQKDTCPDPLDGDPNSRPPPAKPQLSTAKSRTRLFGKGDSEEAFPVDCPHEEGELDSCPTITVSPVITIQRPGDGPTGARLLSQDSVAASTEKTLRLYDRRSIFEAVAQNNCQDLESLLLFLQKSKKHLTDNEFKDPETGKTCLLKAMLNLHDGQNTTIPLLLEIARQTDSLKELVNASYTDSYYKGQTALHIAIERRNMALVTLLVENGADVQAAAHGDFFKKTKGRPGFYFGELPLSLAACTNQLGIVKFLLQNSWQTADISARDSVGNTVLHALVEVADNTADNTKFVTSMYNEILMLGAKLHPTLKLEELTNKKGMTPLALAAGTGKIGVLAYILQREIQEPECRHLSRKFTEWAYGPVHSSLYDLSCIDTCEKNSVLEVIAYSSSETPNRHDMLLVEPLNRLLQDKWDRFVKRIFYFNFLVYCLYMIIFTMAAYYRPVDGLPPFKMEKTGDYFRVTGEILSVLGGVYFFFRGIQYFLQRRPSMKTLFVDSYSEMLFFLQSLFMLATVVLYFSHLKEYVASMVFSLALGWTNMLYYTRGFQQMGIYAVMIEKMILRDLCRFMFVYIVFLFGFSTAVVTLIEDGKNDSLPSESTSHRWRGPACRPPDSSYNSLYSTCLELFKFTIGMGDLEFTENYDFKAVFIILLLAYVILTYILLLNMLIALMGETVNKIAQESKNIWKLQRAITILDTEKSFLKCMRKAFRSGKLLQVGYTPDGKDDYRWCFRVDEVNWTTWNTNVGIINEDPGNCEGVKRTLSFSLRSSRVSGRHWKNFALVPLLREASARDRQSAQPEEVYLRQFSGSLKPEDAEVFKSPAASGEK

Row | SMILES | IC50 (human TRPV1) [µM] | IC50 (rat TRPV1) [µM]
1 | Cc1ccccc1Cc1nc2c(Nc3ccc(C(F)(F)F)cc3)ncnc2s1 [Example 17, 2-(2-Methylbenzyl)-N-[4-(trifluoromethyl)phenyl][1,3]thiazolo[5,4-d]pyrimidin-7-amine] | 0.147 | 0.146
2 | Cc1ccccc1Cc1nc2c(Nc3ccc(C(F)(F)F)nc3)ncnc2s1 [Example 18, 2-(2-Methylbenzyl)-N-[6-(trifluoromethyl)pyridin-3-yl][1,3]thiazolo[5,4-d]pyrimidin-7-amine] | 0.085 | 0.154
3 | Cc1ccccc1Cc1nc2c(Nc3ccc(S(C)(=O)=O)cc3)ncnc2s1 [Example 19, 2-(2-Methylbenzyl)-N-[4-(methylsulfonyl)phenyl][1,3]thiazolo[5,4-d]pyrimidin-7-amine] | 0.471 | 0.247
4 | FC(F)(F)c1ccc(Nc2ncnc3sc(Cc4ccccc4Cl)nc23)cc1 [Example 20, 2-(2-Chlorobenzyl)-N-[4-(trifluoromethyl)phenyl][1,3]thiazolo[5,4-d]pyrimidin-7-amine] | 0.04 | 0.032
5 | FC(F)(F)c1ccc(Nc2ncnc3sc(Cc4ccccc4Cl)nc23)cn1 [Example 21, 2-(2-Chlorobenzyl)-N-[6-(trifluoromethyl)pyridin-3-yl][1,3]thiazolo[5,4-d]pyrimidin-7-amine] | 0.079 | 0.054
6 | CS(=O)(=O)c1ccc(Nc2ncnc3sc(Cc4ccccc4Cl)nc23)cc1 [Example 22, 2-(2-Chlorobenzyl)-N-[4-(methylsulfonyl)phenyl][1,3]thiazolo[5,4-d]pyrimidin-7-amine] | 0.28 | 0.033
7 | FC(F)(F)c1ccccc1Nc1ncnc2sc(Cc3c(Cl)cccc3Cl)nc12 [Example 23, 2-(2,6-Dichlorobenzyl)-N-[2-(trifluoromethyl)phenyl][1,3]thiazolo[5,4-d]pyrimidin-7-amine] | > 6.67 | 1.79
8 | FC(F)(F)c1cccc(Nc2ncnc3sc(Cc4c(Cl)cccc4Cl)nc23)c1 [Example 24, 2-(2,6-Dichlorobenzyl)-N-[3-(trifluoromethyl)phenyl][1,3]thiazolo[5,4-d]pyrimidin-7-amine] | 0.84 | 0.196
9 | FC(F)(F)c1ccc(Nc2ncnc3sc(Cc4ccccc4)nc23)cc1 [Example 32, 2-Benzyl-N-[4-(trifluoromethyl)phenyl][1,3]thiazolo[5,4-d]pyrimidin-7-amine] | 2.92 | 0.055
10 | FC(F)(F)c1ccc(Nc2ncnc3sc(Cc4ccccc4)nc23)cn1 [Example 33, 2-Benzyl-N-[6-(trifluoromethyl)pyridin-3-yl][1,3]thiazolo[5,4-d]pyrimidin-7-amine] | 0.813 | 0.111
11 | CS(=O)(=O)c1ccc(Nc2ncnc3sc(Cc4ccccc4)nc23)cc1 [Example 34, 2-Benzyl-N-[4-(methylsulfonyl)phenyl][1,3]thiazolo[5,4-d]pyrimidin-7-amine] | 3.31 | 1.46
12 | FC(F)(F)c1ccc(Nc2ncnc3sc(Cc4ccc(Cl)cc4)nc23)cc1 [Example 35, 2-(4-Chlorobenzyl)-N-[4-(trifluoromethyl)phenyl][1,3]thiazolo[5,4-d]pyrimidin-7-amine] | 0.988 | 0.042
13 | FC(F)(F)c1ccc(Nc2ncnc3sc(Cc4ccc(Cl)cc4)nc23)cn1 [Example 36, 2-(4-Chlorobenzyl)-N-[6-(trifluoromethyl)pyridin-3-yl][1,3]thiazolo[5,4-d]pyrimidin-7-amine] | 2.3 | 0.08
14 | Clc1cccc(Cl)c1Cc1nc2c(Nc3ccccc3)ncnc2s1 [Example 43, 2-(2,6-Dichlorobenzyl)-N-phenyl[1,3]thiazolo[5,4-d]pyrimidin-7-amine] | 0.269 | 0.167
15 | FC(F)(F)Oc1ccc(Nc2ncnc3sc(Cc4c(Cl)cccc4Cl)nc23)cc1 [Example 44, 2-(2,6-Dichlorobenzyl)-N-[4-(trifluoromethoxy)phenyl][1,3]thiazolo[5,4-d]pyrimidin-7-amine] | 0.193 | 0.044
16 | Cc1ccc(Nc2ncnc3sc(Cc4c(Cl)cccc4Cl)nc23)cc1 [Example 46, 2-(2,6-Dichlorobenzyl)-N-(4-methylphenyl)[1,3]thiazolo[5,4-d]pyrimidin-7-amine] | > 6.67 | 0.052
17 | FC(F)(F)c1ccccc1Cc1nc2c(Nc3ccccc3)ncnc2s1 [Example 48, N-Phenyl-2-[2-(trifluoromethyl)benzyl][1,3]thiazolo[5,4-d]pyrimidin-7-amine] | 0.852 | 0.41
18 | FC(F)(F)c1ccccc1Cc1nc2c(Nc3ccc(Br)cc3)ncnc2s1 [Example 49, N-(4-Bromophenyl)-2-[2-(trifluoromethyl)benzyl][1,3]thiazolo[5,4-d]pyrimidin-7-amine] | 0.059 | 0.016
19 | CC(C)(C)c1ccc(Nc2ncnc3sc(Cc4ccccc4C(F)(F)F)nc23)cc1 [Example 50, N-(4-tert-Butylphenyl)-2-[2-(trifluoromethyl)benzyl][1,3]thiazolo[5,4-d]pyrimidin-7-amine] | 0.034 | 0.006
20 | CS(=O)(=O)c1ccc(Nc2ncnc3sc(Cc4ccccc4C(F)(F)F)nc23)cc1 [Example 51, N-[4-(Methylsulfonyl)phenyl]-2-[2-(trifluoromethyl)benzyl][1,3]thiazolo[5,4-d]pyrimidin-7-amine] | 0.202 | 0.039
21 | O=S(=O)(c1ccc(Nc2ncnc3sc(Cc4ccccc4C(F)(F)F)nc23)cc1)N1CCOCC1 [Example 52, N-[4-(Morpholin-4-ylsulfonyl)phenyl]-2-[2-(trifluoromethyl)benzyl][1,3]thiazolo[5,4-d]pyrimidin-7-amine] | 0.059 | 0.044

The remaining lines, values ahead:

Row | IC50 (human TRPV1) [µM] | IC50 (rat TRPV1) [µM] | SMILES
22 | 0.416 | 1.09 | CN1CCN(S(=O)(=O)c2ccc(Nc3ncnc4sc(Cc5c(Cl)cccc5Cl)nc34)cc2)CC1 [Example 16, [2-(2,6-Dichloro-benzyl)-thiazolo[5,4-d]pyrimidin-7-yl]-[4-(4-methyl-piperazine-1-sulfonyl)-phenyl]-amine]
23 | 0.054 | 0.011 | CC(C)(C)c1ccc(Nc2ncnc3sc(Cc4c(Cl)cccc4Cl)nc23)cc1 [Example 25, N-(4-tert-Butylphenyl)-2-(2,6-dichlorobenzyl)[1,3]thiazolo[5,4-d]pyrimidin-7-amine]
24 | 0.328 | 0.241 | COc1ccc(Nc2ncnc3sc(Cc4c(Cl)cccc4Cl)nc23)cc1 [Example 37, 2-(2,6-Dichlorobenzyl)-N-(4-methoxyphenyl)[1,3]thiazolo[5,4-d]pyrimidin-7-amine]
25 | 0.225 | 0.189 | Fc1ccc(Nc2ncnc3sc(Cc4c(Cl)cccc4Cl)nc23)cc1 [Example 39, 2-(2,6-Dichlorobenzyl)-N-(4-fluorophenyl)[1,3]thiazolo[5,4-d]pyrimidin-7-amine]
26 | 0.049 | 0.051 | Clc1ccc(Nc2ncnc3sc(Cc4c(Cl)cccc4Cl)nc23)cc1 [Example 40, N-(4-Chlorophenyl)-2-(2,6-dichlorobenzyl)[1,3]thiazolo[5,4-d]pyrimidin-7-amine]
27 | 0.032 | 0.029 | Clc1cccc(Cl)c1Cc1nc2c(Nc3ccc(Br)cc3)ncnc2s1 [Example 41, N-(4-Bromophenyl)-2-(2,6-dichlorobenzyl)[1,3]thiazolo[5,4-d]pyrimidin-7-amine]
28 | 0.099 | 0.056 | CC(C)(C#N)c1ccc(Nc2ncnc3sc(Cc4c(Cl)cccc4Cl)nc23)cc1 [Example 42, 2-(4-{[2-(2,6-Dichlorobenzyl)[1,3]thiazolo[5,4-d]pyrimidin-7-yl]amino}phenyl)-2-methylpropanenitrile]
29 | 0.274 | 0.183 | CS(=O)(=O)c1ccc(Nc2ncnc3sc(Cc4c(Cl)cccc4Cl)nc23)cc1F [Example 45, 2-(2,6-Dichlorobenzyl)-N-[3-fluoro-4-(methylsulfonyl)phenyl][1,3]thiazolo[5,4-d]pyrimidin-7-amine]
30 | 8.9 | 4.49 | CC(C)(C(N)=O)c1ccc(Nc2ncnc3sc(Cc4c(Cl)cccc4Cl)nc23)cc1 [Example 47, 2-(4-{[2-(2,6-Dichlorobenzyl)[1,3]thiazolo[5,4-d]pyrimidin-7-yl]amino}phenyl)-2-methylpropanamide]
